Measurements: paper PMC12013085, “Peptides targeting RAB11A–FIP2 complex inhibit HPIV3, RSV, and IAV replication as broad-spectrum antivirals” (Cell & Bioscience, 2025)
Like-named read-outs stand apart in the source and are kept apart here.

Legend:
HPIV3 [1] = experiment: Late-stage HPIV3 replication with cytoskeleton inhibitors (TCID50, RT-qPCR, WB); settings: HeLa cells infected 18 h, then inhibitor for 6 h; for viral RNA synthesis and protein expression levels: RT-qPCR and WB; for HPIV3 virions in the supernatant / intracellular progeny virus particles: TCID50 at 24 hpi
Description: To investigate the role of the cytoskeleton in the later stages of infection, HeLa cells were infected with HPIV3 for 18 h before being treated with the inhibitors for an additional 6 h.
A–D Impact of cytoskeleton inhibitors on HPIV3 replication. HeLa cells infected with HPIV3 for 18 h were treated with Nocodazole (NCZ) or Cytochalasin D (Cyto D). At 24 h post infection (hpi), the virions released in the cell supernatant (A) and the quantity of intracellular progeny virus particles (B) were determined by TCID50 assays. Cells were collected for RT-qPCR analysis of intracellular viral RNA (C), and Western Blot (WB) analysis of intracellular viral protein (D). […] All experiments were independently repeated at least twice with reproducible results. Statistical significance (*p < 0.05, **p < 0.01, ***p < 0.001) was determined by two-sided unpaired t test. Data are means ± SEM

HPIV3 VLPs in 293T cells = experiment: HPIV3 VLP budding and plasma membrane fraction assay, WB; format: cell-based; settings: 293T cells transfected with N, P, M plasmids 30 h, inhibitor for 6 h
Description: Data are presented as means ± SEM
The cell lysates were prepared as described for the Western blot (WB) analysis. The supernatant was harvested and clarified by centrifugation at 12,000×g for 5 min. Subsequently, the supernatant was pelleted through a 20% sucrose cushion at 4 °C at 35,000 rpm for 2 h. The VLP pellets obtained were resuspended in PBS and boiled with SDS-PAGE loading buffer at 100 °C for 10 min. Both the cell lysates and the supernatants were then subjected to WB analysis.
293T cells, cultured in 6-cm dishes, were transfected with the indicated plasmids for 24 h. Cell collection was performed through centrifugation at 500×g for 5 min at 4 °C. Subsequently, cytosol, organelle membrane, and plasma membrane-associated proteins were extracted sequentially using the MinuteTM plasma membrane protein isolation and cell fractionation kit (INVENT), following the manufacturer's instructions.

WSN virus = format: in vivo, BALB/c mice; settings: 20 mg/kg i.p. once daily Day 0 to Day 4, positive control, n = 5
HPIV3 [2] = test system: HPIV3
[3] = test system: HeLa, A549, MK2, MDCK and HEp-2 cells; settings: CCK-8, 24 h treatment, in the tested cell lines (HeLa, A549, MK2, MDCK, HEp-2)
HeLa cells = experiment: Cellular uptake of FITC-labeled RBD, fluorescent microscopy; format: in vitro ADME; settings: 5 μM FITC-labeled RBD, with or without HPIV3HA-P infection, fluorescent microscopy at 24 hpi
Description: Supplementary file 13578_2025_1384_MOESM4_ESM.tif: Supplementary Material 4. Fig. S4. Cell penetration, cytotoxicity, and anti-HPIV3 activity of RBD in different cell lines. (A) Cellular uptake of FITC-labeled RBD in HeLa Cells. HeLa cells were exposed to 5 μM FITC-labeled RBD in the absence or presence of HPIV3HA-P infection, and analyzed by fluorescent microscopy at 24 hpi. RBD (green), HPIV3HA-P (red), and nuclei were stained with DAPI. Scale bar, 50 μm. (B to F) Cytotoxicity of RBD in various cell lines. Cell viability was assessed in HeLa (B), A549 (C), MK2 (D), MDCK (E) and HEp-2 cells (F) treated with increasing concentrations of […] for 24 h using the CCK-8 assay. (G to I) Antiviral efficacy of RBD against HPIV3 in different cell lines. A549 (G), MK2 (H) and MDCK (I) cells were treated with 2-fold-increasing concentrations of RBD for 24h, and viral titers in the cell supernatant were determined by TCID50. […] Data are means ± SEM.

## C=C1[C@@H](C)[C@H]2[C@H](Cc3ccccc3)NC(=O)[C@]23[C@H](OC(C)=O)/C=C/[C@@](C)(O)C(=O)[C@@H](C)C/C=C/[C@H]3[C@@H]1O [Cyto D, Cytochalasin D]
HPIV3 [1]
  viral RNA synthesis and protein expression levels: unaffected
  HPIV3 virions in the supernatant: significant reduction
  intracellular progeny virus particles: decrease
HPIV3 VLPs in 293T cells
  VLP production: substantial impact

## COC(=O)Nc1nc2ccc(C(=O)c3cccs3)cc2[nH]1 [NCZ, Nocodazole]
HPIV3 [1]
  viral RNA synthesis and protein expression levels: unaffected
  HPIV3 virions in the supernatant: significant reduction
  intracellular progeny virus particles: decrease
HPIV3 VLPs in 293T cells
  VLP production: modest effect

## CCOC(=O)C1=C[C@@H](OC(CC)CC)[C@H](NC(C)=O)[C@@H](N)C1 [Osel, Oseltamivir, reference compound]
WSN virus
  protection against morbidity and mortality, IAV (WSN): complete protection against morbidity and mortality

## N=C(N)NCCC[C@H](NC(=O)[C@H](CCCNC(=N)N)NC(=O)[C@H](CCCNC(=N)N)NC(=O)[C@H](CCC(N)=O)NC(=O)[C@H](CCCNC(=N)N)NC(=O)[C@H](CCCNC(=N)N)NC(=O)[C@H](CCCCN)NC(=O)[C@H](CCCCN)NC(=O)[C@@H](N)CCCNC(=N)N)C(=O)O [Tat, reference compound]
HPIV3 [2]; HeLa cells, escalating concentrations, 24 hpi, WB and TCID50
  antiviral effect on HPIV3 infection (in words): no discernible antiviral effect

## THIRELEDYIDNLLVRVMEETPSILRVPRKKRRQRRR [RBD]
[3]
  CC50: > 75 µM
HeLa cells
  cell penetration (cellular uptake): efficiently penetrated HeLa cells
HPIV3 [2]; A549 cells
  SI (CC50/IC50), HPIV3, A549: > 21.55
HPIV3 [2]; HeLa cells
  SI (CC50/IC50), HPIV3, HeLa: > 23.08
HPIV3 [2]; MDCK cells
  SI (CC50/IC50), HPIV3, MDCK: > 15.37
HPIV3 [2]; MK2 cells
  SI (CC50/IC50), HPIV3, MK2: > 27.68
HPIV3 [2]; read-out: IC50, HPIV3, A549
  IC50: 3.48 µM
HPIV3 [2]; read-out: IC50, HPIV3, HeLa
  IC50: 3.25 µM
HPIV3 [2]; read-out: IC50, HPIV3, MDCK
  IC50: 4.88 µM
HPIV3 [2]; read-out: IC50, HPIV3, MK2
  IC50: 2.71 µM
